A word on the Ki: it is the equilibrium dissociation constant of an inhibitor or competing ligand from its target. Read a high Ki as a looser hold on the target.

For experiment [1], the target named is Neuronal acetylcholine receptor; alpha4/beta2 (Homo sapiens, UniProt P17787+P43681). In words: Binding affinity at heteropentameric Nicotinic acetylcholine receptor alpha4-beta2 subtype using […] as radioligand. It is filed as protein-complex assay.
Experiment [2] concerns the target Neuronal acetylcholine receptor subunit alpha-7 (Homo sapiens, UniProt P36544). The experiment in a line: Binding affinity at homopentameric Nicotinic acetylcholine receptor alpha-7 subtype using [3H]-alpha-bungarotoxin as radioligand.

SMILES strings stand for the structures.

Sequence of Neuronal acetylcholine receptor; alpha4/beta2 (P17787 whole entry): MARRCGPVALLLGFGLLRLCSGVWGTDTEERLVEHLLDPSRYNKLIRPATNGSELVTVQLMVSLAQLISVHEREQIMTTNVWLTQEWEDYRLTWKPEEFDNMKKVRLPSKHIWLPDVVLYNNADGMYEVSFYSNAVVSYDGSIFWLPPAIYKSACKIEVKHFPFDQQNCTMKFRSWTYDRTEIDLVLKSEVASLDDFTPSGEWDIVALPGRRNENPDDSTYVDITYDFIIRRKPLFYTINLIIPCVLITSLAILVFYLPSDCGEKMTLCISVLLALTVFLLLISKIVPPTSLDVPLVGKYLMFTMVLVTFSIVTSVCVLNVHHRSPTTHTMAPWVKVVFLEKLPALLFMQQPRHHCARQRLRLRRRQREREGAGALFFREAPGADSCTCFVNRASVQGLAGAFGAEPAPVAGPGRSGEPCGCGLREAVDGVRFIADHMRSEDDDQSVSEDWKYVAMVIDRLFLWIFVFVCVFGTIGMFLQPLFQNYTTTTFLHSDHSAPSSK
Sequence of Neuronal acetylcholine receptor; alpha4/beta2 (P43681 whole entry): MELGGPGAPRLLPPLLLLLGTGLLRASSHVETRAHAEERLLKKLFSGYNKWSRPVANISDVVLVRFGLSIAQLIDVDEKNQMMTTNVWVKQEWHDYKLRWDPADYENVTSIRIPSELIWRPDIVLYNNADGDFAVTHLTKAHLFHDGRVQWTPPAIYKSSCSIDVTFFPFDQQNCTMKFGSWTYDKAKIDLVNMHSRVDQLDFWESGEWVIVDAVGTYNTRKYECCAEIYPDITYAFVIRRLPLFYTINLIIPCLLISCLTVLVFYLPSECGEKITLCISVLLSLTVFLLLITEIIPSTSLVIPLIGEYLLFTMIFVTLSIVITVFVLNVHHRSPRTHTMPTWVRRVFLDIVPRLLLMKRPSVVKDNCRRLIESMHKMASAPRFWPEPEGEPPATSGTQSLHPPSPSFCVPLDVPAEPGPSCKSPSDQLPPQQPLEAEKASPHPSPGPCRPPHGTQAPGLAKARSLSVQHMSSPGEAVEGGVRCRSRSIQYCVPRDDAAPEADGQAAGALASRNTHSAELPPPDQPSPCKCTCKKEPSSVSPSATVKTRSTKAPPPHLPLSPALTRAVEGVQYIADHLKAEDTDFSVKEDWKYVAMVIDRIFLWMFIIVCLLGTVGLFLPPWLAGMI
Sequence of Neuronal acetylcholine receptor subunit alpha-7 (P36544 whole entry): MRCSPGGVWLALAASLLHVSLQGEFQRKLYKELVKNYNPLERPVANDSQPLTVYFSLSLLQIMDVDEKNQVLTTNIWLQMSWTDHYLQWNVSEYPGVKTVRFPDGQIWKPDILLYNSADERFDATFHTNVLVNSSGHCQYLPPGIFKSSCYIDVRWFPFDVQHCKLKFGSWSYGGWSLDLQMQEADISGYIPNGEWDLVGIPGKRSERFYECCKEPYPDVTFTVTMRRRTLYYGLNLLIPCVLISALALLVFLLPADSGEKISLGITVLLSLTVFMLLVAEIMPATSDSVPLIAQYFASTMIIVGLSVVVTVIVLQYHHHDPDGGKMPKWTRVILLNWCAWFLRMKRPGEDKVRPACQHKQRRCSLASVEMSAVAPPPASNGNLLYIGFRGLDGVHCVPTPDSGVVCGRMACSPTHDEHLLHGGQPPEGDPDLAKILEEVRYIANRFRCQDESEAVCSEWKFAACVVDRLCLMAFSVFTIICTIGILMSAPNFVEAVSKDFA

For `c1cncc(C2CCN2)c1` (stereo not given), the affinity in experiment [1] corresponds to a Ki of 1.1 nM. For the compound `CN1CCCCC1c1cccnc1` (stereo not given), the figures for the Ki in experiment [2] and in experiment [1] were 9700 nM and 450 nM, respectively.

For the compound `c1cncc([C@@H]2CCCN2)c1` [NORNICOTINE], in experiment [2], the Ki was 730 nM. Regarding `c1cncc(C2CCCCN2)c1` (stereo not drawn) [DL-ANABASINE], the inhibition constant Ki was determined as 450 nM in experiment [2] and 92 nM in experiment [1]. For `C[N+](C)(C)C` [TETRAMETHYLAMMONIUM ION] the same measures were 2300 nM and 24 nM. On to `Clc1ccc(C2CC3CCC2N3)cn1` (stereo not given) [EPIBATIDINE], for which the Ki in experiment [2] turned out to be 25 nM. For `CN1C2CCC1C(c1ccc(Cl)nc1)C2` (stereo not given), the affinity in experiment [1] corresponds to a Ki of 0.26 nM. That is a sub-nanomolar value.

Values taken from ChEMBL document CHEMBL1132338, “Molecular recognition in nicotinic acetylcholine receptors: the importance of pi-cation interactions” (J Med Chem, 1999).
